In patent US4062973A, “Sulfur-containing derivatives of cyclohexylphenyl-ethane” (Boehringer Ingelheim GmbH, priority 1975, dated 1977):
Where two headings read alike, the source gives them in different places.

Key:
mice = test: Determination of the prolongation of the bleeding time; type: in vivo; conditions: 10 mgm/kg orally, awake mice, compared with untreated control group
Procedure: 2. determination of the prolongation of the bleeding time:
To determine the effect on the bleeding time, 10 mgm/kg of the test compound were administered orally to awake, unanesthetized mice. After 1 hour, and again after 3 hours, about 0.5 mm from the end of the tail of each animal was cut off, and the exuded blood was carefully soaked up into filter paper every 30 seconds. The number of drops of blood so obtained provided a measure for the bleeding time (5 animals/experiment).
The numbers in Table II represent the prolongation in %, compared with an untreated control group: […]

white mice = test: Acute toxicity in white mice after oral application of a single dose; type: in vivo; conditions: 1000 mgm/kg, observation time 14 days
Procedure: (§1) The acute toxicity of the compounds was determined in white mice (observation time: 14 days) after oral application of a single dose: […]

[1] = as above; type: in vivo; conditions: mouse, in vivo, observation time 14 days
Procedure: as §1

[2] = test system: platelet-rich plasma of healthy human donors; test: Determination of platelet aggregation by the method of Born and Cross (collagen-induced, platelet-rich plasma); type: cell-based; conditions: 10^-4 mol/lit., compared with control batch without test compound; for inhibition at 100 µM: Homo sapiens, Platelet
Procedure: 1. Determination of platelet aggregation by the method of Born and Cross (see J. Physiol. 170, 397 (1964)):
The platelet aggregation was measured in the platelet-rich plasma of healthy human donors. The alterations of the optical density of the platelet suspension was measured and recorded photometrically after the addition of commercial collagen manufactured by Hormonchemie, Munich, Germany, containing 1 mgm of collagen fibrils per ml. From the angle of inclination of the density curve, the rate of aggregation was estimated (Vmax). The optical density (O.D.) was taken at the point on the curve where the most light was transmitted. Small doses of collagen were chosen, but sufficient to give irreversible aggregation. To provoke maximum aggregation, about 0.01 ml of the collagen solution was added to 1 ml of platelet-rich plasma.
The numbers in Table I represent the % reduction in the aggregation rate (Vmax) and the % change in optical density (O.D.), compared with a control batch without addition of a test compound.

[3] = read-out: % Reduction (change) in optical density (O.D.)
[4] = read-out: % Reduction in the aggregation rate (Vmax)

SMILES	Prolongation of the bleeding time in % after 1 hour (mice) [%]	Prolongation of the bleeding time in % after 3 hours (mice) [%]	Acute toxicity: animals died (white mice)	LD50 at 336 h [1] [mg/kg]	inhibition at 100 µM [2, 3] [%]	inhibition at 100 µM [2, 4] [%]	% Reduction (change) in optical density (O.D.) ([2]; 100 µM) [%]	% Reduction in the aggregation rate (Vmax) ([2]; 100 µM) [%]
COC(=O)C[S+]([O-])C(C)c1ccc(C2CCCCC2)cc1 (stereo not drawn) [B, methyl [1-(4'-cyclohexyl-phenyl)-ethylsulfinyl]-acetate]	117	51	0 out of 10	> 1000	–	–	–	–
COC(=O)C[S+]([O-])C(C)c1ccc(C2CCCCC2)c(Cl)c1 (stereo not drawn) [C, methyl [1-(3'-chloro-4'-cyclohexyl-phenyl)-ethylsulfinyl]-acetate]	–	–	–	–	89	85	–	–
CC(c1ccc(C2CCCCC2)cc1)[S+]([O-])CC(=O)O (stereo not drawn) [Compound A, [1-(4'-cyclohexyl-phenyl)-ethylsulfinyl]-acetic acid]	300	122	0 out of 10	> 1000	–	–	–	–
CCOC(=O)C[S+]([O-])C(C)c1ccc(C2CCCCC2)c(Cl)c1 (stereo not drawn) [D, Ethyl [1-(3'-chloro-4'-cyclohexyl-phenyl)-ethylsulfinyl]-acetate]	49	–	–	–	–	–	89	87
CC(c1ccc(C2CCCCC2)c(Cl)c1)[S+]([O-])CC(=O)N1CCCCC1 (stereo not drawn) [E, [1-(3'-chloro-4'-cyclohexyl-phenyl)-ethylsulfinyl]-acetic acid piperidide]	37	–	0 out of 10	> 1000	92	90	–	–
